Test results: US4822791A, “Pharmaceutical compositions of-2,2-1,1-[bis-2,2'-(3,1-benzoxazin-4-one)9 ethylenes” (priority 1984, dated 1989)

The molecules below were run against T1, hyaluronidase (Bos taurus, UniProt Q2YDK3) (assay: Anti-hyaluronidase activity (modified Morgan-Elson method)). Conditions: hyaluronidase 340NF unit/ml; activating agent Compound 48/80 or CaCl2; read-out: IC50.
T1 sequence (Q2YDK3 36-553): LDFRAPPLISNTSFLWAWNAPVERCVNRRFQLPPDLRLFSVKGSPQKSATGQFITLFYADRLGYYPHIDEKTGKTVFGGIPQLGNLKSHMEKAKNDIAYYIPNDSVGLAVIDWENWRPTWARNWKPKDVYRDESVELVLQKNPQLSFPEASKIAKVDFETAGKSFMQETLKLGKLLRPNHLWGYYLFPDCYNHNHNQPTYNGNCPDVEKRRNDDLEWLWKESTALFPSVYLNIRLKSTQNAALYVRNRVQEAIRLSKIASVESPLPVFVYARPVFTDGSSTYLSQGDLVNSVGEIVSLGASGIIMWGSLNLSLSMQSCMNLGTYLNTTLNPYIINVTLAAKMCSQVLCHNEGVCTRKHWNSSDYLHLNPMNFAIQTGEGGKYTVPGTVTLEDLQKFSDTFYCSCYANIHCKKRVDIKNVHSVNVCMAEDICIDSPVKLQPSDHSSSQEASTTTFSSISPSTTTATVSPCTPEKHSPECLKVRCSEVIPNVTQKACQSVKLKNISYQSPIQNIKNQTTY
Format: biochemical

IC50 | SMILES
142 µM | Cc1ccc(NC(=O)C(=Cc2ccccc2)C(=O)Nc2ccc(C)cc2C(=O)O)c(C(=O)O)c1 [Compound 17]
13 µM | COc1ccc(C=C(C(=O)Nc2ccccc2C(=O)O)C(=O)Nc2ccccc2C(=O)O)cc1 [Compound 19]
30 µM | CC(C)c1ccc(C=C(C(=O)Nc2ccccc2C(=O)O)C(=O)Nc2ccccc2C(=O)O)cc1 [Compound 27]
110 µM | CN(C)c1ccc(C=C(C(=O)Nc2ccccc2C(=O)O)C(=O)Nc2ccccc2C(=O)O)cc1 [Compound 28]
25 µM | O=C(Nc1ccccc1C(=O)O)C(=Cc1cccc(Cl)c1)C(=O)Nc1ccccc1C(=O)O [Compound 31]
25 µM | O=C(Nc1ccccc1C(=O)O)C(=Cc1ccccc1Cl)C(=O)Nc1ccccc1C(=O)O [Compound 32]
15 µM | O=C(Nc1ccccc1C(=O)O)C(=Cc1ccc(Br)cc1)C(=O)Nc1ccccc1C(=O)O [Compound 33]
25 µM | O=C(Nc1ccccc1C(=O)O)C(=Cc1ccc(F)cc1)C(=O)Nc1ccccc1C(=O)O [Compound 34]
15 µM | O=C(Nc1ccccc1C(=O)O)C(=Cc1ccc(C(F)(F)F)cc1)C(=O)Nc1ccccc1C(=O)O [Compound 35]
25 µM | O=C(Nc1ccccc1C(=O)O)C(=Cc1ccc([N+](=O)[O-])cc1)C(=O)Nc1ccccc1C(=O)O [Compound 36, 2,2'-[[1,3-dioxo-2-(4-nitro)phenylmethylene-1,3-propanediyl]diimino]bisbenzoic acid]
17 µM | N#Cc1ccc(C=C(C(=O)Nc2ccccc2C(=O)O)C(=O)Nc2ccccc2C(=O)O)cc1 [Compound 37]
23 µM | O=C(Nc1ccccc1C(=O)O)C(=Cc1cccc2ccccc12)C(=O)Nc1ccccc1C(=O)O [Compound 38]
40 µM | O=C(Nc1ccccc1C(=O)O)C(=Cc1ccco1)C(=O)Nc1ccccc1C(=O)O [Compound 39]
35 µM | O=C(Nc1ccccc1C(=O)O)C(=Cc1cccs1)C(=O)Nc1ccccc1C(=O)O [Compound 40, 2,2'-[[1,3-dioxo-2-{2-thienyl)methylene-1,3-propanediyl]diimino]bisbenzoicacid]

Continued, molecule first:

SMILES | IC50
O=C(Nc1ccccc1C(=O)O)C(=Cc1ccccc1)C(=O)Nc1ccccc1C(=O)O | 35 µM
O=C(CC(=O)Nc1ccccc1C(=O)O)Nc1ccccc1C(=O)O [Compound 01, 2,2'-[(1,3-dioxo-1.3-propanediyl)diimino]bisbenzoic acid] | 77 µM
O=C(CC(=O)Nc1cc(Cl)ccc1C(=O)O)Nc1ccccc1C(=O)O [Compound 09, 4-chloro-2,2'-[(1,3-dioxo-1,3propanediyl)diimino]bisbenzoic acid] | 134 µM
O=C(Nc1cccc(C(=O)O)c1)C(=Cc1ccccc1)C(=O)Nc1cccc(C(=O)O)c1 [Compound 12] | 65 µM
O=C(Nc1ccc(C(=O)O)cc1)C(=Cc1ccccc1)C(=O)Nc1ccc(C(=O)O)cc1 [Compound 13] | 55 µM
O=C(Nc1cc(Cl)ccc1C(=O)O)C(=Cc1ccccc1)C(=O)Nc1cc(Cl)ccc1C(=O)O [Compound 15] | 55 µM

Same assay, conditions: value marked (IC10); read-out: IC10 (printed in IC50 (mM) column)

IC10 | SMILES
0.015 mM | CCOC(=O)c1ccccc1NC(=O)CC(=O)Nc1ccccc1C(=O)OCC [Compound 04]
1.32 mM | O=C(CC(=O)Nc1cc(Cl)ccc1C(=O)O)Nc1cc(Cl)ccc1C(=O)O [Compound 05]
0.66 mM | Cc1ccc(NC(=O)CC(=O)Nc2ccc(C)cc2C(=O)O)c(C(=O)O)c1 [Compound 07]
0.22 mM | COc1ccc(C(=O)O)cc1NC(=O)CC(=O)Nc1cc(C(=O)O)ccc1OC [Compound 08]
0.29 mM | COc1ccc(C(=O)O)cc1NC(=O)C(=Cc1ccccc1)C(=O)Nc1cc(C(=O)O)ccc1OC [Compound 18]

Same assay, conditions: value marked (IC20); read-out: IC20 (printed in IC50 (mM) column)

IC20 | SMILES
0.9 mM | O=C(CC(=O)Nc1cccc(C(=O)O)c1)Nc1cccc(C(=O)O)c1 [Compound 02]
0.72 mM | Cc1ccc(NC(=O)CC(=O)Nc2ccc(C)cc2C(=O)O)c(C(=O)O)c1 [Compound 07]

Each molecule was assayed on experimental ulcer model (Shay) (assay: Anti-ulcer activity in experimental ulcer model (Shay)). Conditions: id 30 mg/kg.
Format: in vivo, Wistar strain male rats
Experimental: Using 5 eight-week old Wistar strain male rats of 1 group, the rats were previously fasted for […]. The compound of an amount proportionate to the body weight based on the body weight after fasting was administered intraduodenally or intraperitoneally.
Each test compound was evenly suspended or dissolved in an aqueous solution of 0.5% CMC ccntaining 0.1% Tween 80, and administered at the rate of 0.5 ml per 100 g of body weight of the animal. To the controls, only the solvent was administered.
Test was carried out in accordance with Shay's method. After 48 hours' fasting, 5 animals per group were subjected to laparotomy under ether anesthesia, the tract between pylorus of stomach and duodenum was ligated, and the solution of the compound was administered intraduodenally (id) or intraperitoneally (ip), followed by suturing the laparotomy part. Eight hours after administration of the compound liquid, each animal was sacrificed by ether anesthesia and stomach was removed. Then, evaluation on the ulcer condition on the inner surface of stomach, and determination of the amount of gastric juice, of acidity by alkali titration, and of pepsin titer based on substrate of hemoglovin were made on the stored gastric juice. With regard to the acidity, gastric juice amount, and pepsin titer, the results were shown in inhibition rate (%) based on the average value of the control groups.

SMILES | Inhibition % Gastric Acidity | Inhibition % secretion amount of gastric juice | Inhibition % total pepsin titer
CNC(=C[N+](=O)[O-])NCCSCc1ccc(CN(C)C)o1 [Ranitidine, reference compound] | 63.0% | 25.2% | 20.6%
